The record followed here is PubChem BioAssay (NCI).

Some test systems named below: SK-MEL-5 melanoma; CAKI-1 renal; SNB-75 CNS; OVCAR-8 ovarian; NCI-H522 lung; OVCAR-4 ovarian; SF-539 CNS; T-47D breast.
Common to all, as to assay: inhibition of tumour cell growth, NCI panel, 48 h

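Compound exposure: 48 hours, 5 concentrations, 96-well plates. GI50: concentration for 50% inhibition of growth. TGI: total growth inhibition.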 A value given as a limit tells only on which side of the number the result lay.

As for `Oc1ccc(Cl)cc1N=Nc1c(O)ccc2ccccc12`, the TGI with SK-MEL-5 melanoma, in the experiment with CAKI-1 renal, in the experiment on SNB-75 CNS, in the experiment on OVCAR-8 ovarian, with NCI-H522 lung and in the experiment on OVCAR-4 ovarian was more than 100 µM each time.

Consider `Cn1cc(-c2nc(-c3c[nH]c4ccccc34)cs2)c2cccnc21`, for which the GI50 was 0.255 µM in the experiment with SK-MEL-5 melanoma; 0.273 µM with CAKI-1 renal; 0.282 µM in the experiment with SF-539 CNS; 0.161 µM in the experiment with SNB-75 CNS; 0.689 µM with OVCAR-8 ovarian; 0.0586 µM with NCI-H522 lung. Besides, the GI50 with OVCAR-4 ovarian was 0.756 µM. Moreover, the TGI was 16.1 µM in the experiment on SK-MEL-5 melanoma; more than 100 µM in the experiment on CAKI-1 renal; 1.44 µM in the experiment on SF-539 CNS; 0.779 µM in the experiment on SNB-75 CNS; more than 100 µM with OVCAR-8 ovarian; 6.67 µM with NCI-H522 lung. The compound further yielded a TGI in the experiment on OVCAR-4 ovarian of more than 60.4 µM.

As for `O=C(Nc1cccc(Cl)c1)Nc1cc(C(F)(F)F)ccc1Cl`, the GI50 is 1.92 µM in the experiment with SK-MEL-5 melanoma; 3.18 µM in the experiment with SF-539 CNS; 2.29 µM in the experiment on SNB-75 CNS; 3.16 µM in the experiment with OVCAR-8 ovarian; 2.14 µM with NCI-H522 lung; 3.8 µM with OVCAR-4 ovarian. In addition, the GI50 in the experiment with T-47D breast was 3.53 µM. The TGI worked out at 3.51 µM in the experiment with SK-MEL-5 melanoma; 11.4 µM in the experiment on SF-539 CNS; 6.48 µM in the experiment with SNB-75 CNS; 7.75 µM in the experiment with OVCAR-8 ovarian; 7.7 µM in the experiment on NCI-H522 lung; 16.6 µM with OVCAR-4 ovarian. Further, in the experiment with T-47D breast, the TGI turned out to be 31.3 µM.

With `O=C(COc1ccc(Cl)cc1Cl)NNc1ccc([N+](=O)[O-])cc1`, the GI50 in the experiment with SK-MEL-5 melanoma was more than 100 µM; in the experiment on CAKI-1 renal it was more than 100 µM; with SF-539 CNS it was 99.8 µM; in the experiment with SNB-75 CNS it was 15.3 µM; in the experiment on OVCAR-8 ovarian, 98.9 µM; in the experiment on OVCAR-4 ovarian it was more than 100 µM. The GI50 in the experiment with T-47D breast was 43.3 µM. Besides, the TGI in the experiment with SK-MEL-5 melanoma is more than 100 µM; in the experiment with CAKI-1 renal, more than 100 µM; with SF-539 CNS, more than 100 µM; with SNB-75 CNS it was 33.7 µM; with OVCAR-8 ovarian it was more than 100 µM; in the experiment with OVCAR-4 ovarian, more than 100 µM. The TGI in the experiment with T-47D breast is more than 100 µM.

On to `[N-]=[N+]=NCCCn1c2c(c3ccccc3c1=O)C(=O)c1cc3c(cc1-2)OCO3`, for which the GI50 in the experiment with SK-MEL-5 melanoma is 45.6 µM; in the experiment with SF-539 CNS, 20.9 µM; in the experiment with OVCAR-8 ovarian, more than 100 µM; in the experiment with NCI-H522 lung, 15.6 µM. In addition, the TGI in the experiment with SK-MEL-5 melanoma, in the experiment with SF-539 CNS, in the experiment on OVCAR-8 ovarian and in the experiment on NCI-H522 lung was more than 100 µM in each case.

In the case of `Cc1cc(S(=O)(=O)Nc2nc3ccccc3s2)c(SCc2ccccc2)cc1Cl`, the GI50 in the experiment with SK-MEL-5 melanoma was 12.5 µM; in the experiment with CAKI-1 renal, 4.12 µM; with SF-539 CNS it was 16.5 µM; in the experiment with OVCAR-8 ovarian, 17 µM; in the experiment on NCI-H522 lung it was 31.5 µM; in the experiment on OVCAR-4 ovarian, 13.2 µM. Moreover, the TGI in the experiment with SK-MEL-5 melanoma is 25 µM; in the experiment with CAKI-1 renal, 17.6 µM; in the experiment with SF-539 CNS it was 32.7 µM; in the experiment with OVCAR-8 ovarian, 44.9 µM; with NCI-H522 lung, more than 100 µM; in the experiment on OVCAR-4 ovarian, 51.8 µM.

Regarding `Cc1c(-c2c(F)cc(C(N)=O)c3[nH]c4c(c23)CC[C@H](C(C)(C)O)C4)cccc1-n1c(=O)c2cccc(F)c2n(C)c1=O`, the GI50 with SK-MEL-5 melanoma was 3.83 µM; with CAKI-1 renal it was 2.08 µM; in the experiment on SF-539 CNS it was 4.78 µM; in the experiment with OVCAR-8 ovarian it was 4.16 µM; with NCI-H522 lung it was 2.81 µM; in the experiment on OVCAR-4 ovarian it was 6.31 µM. Further, in the experiment on T-47D breast, the GI50 was 3.39 µM. Also, the TGI was 16.2 µM with SK-MEL-5 melanoma; more than 100 µM in the experiment with CAKI-1 renal; 33.4 µM in the experiment with SF-539 CNS; more than 100 µM with OVCAR-8 ovarian; 32.9 µM in the experiment on NCI-H522 lung; more than 100 µM with OVCAR-4 ovarian. Also, in the experiment with T-47D breast, the TGI was more than 100 µM.

`c1ccc2cc(Cn3c(-c4cccc5ccccc45)[n+](Cc4ccc5ccccc5c4)c4c5ccccc5c5ccccc5c43)ccc2c1`: the GI50 with SK-MEL-5 melanoma was 0.179 µM; in the experiment with SNB-75 CNS it was 0.261 µM; with OVCAR-8 ovarian, 0.332 µM; with OVCAR-4 ovarian, 0.324 µM; in the experiment on T-47D breast it was 0.269 µM. The TGI in the experiment with SK-MEL-5 melanoma amounted to 0.338 µM; with SNB-75 CNS it was 1.19 µM; in the experiment on OVCAR-8 ovarian, 1.92 µM; with OVCAR-4 ovarian, 1.41 µM; with T-47D breast, 1.7 µM.

For the compound `CN(N=O)N1C(=O)SCC(c2ccccc2)(c2ccccc2)C1=O`, the TGI in the experiment on SK-MEL-5 melanoma is more than 100 µM; with CAKI-1 renal, more than 100 µM; with SF-539 CNS, 65.5 µM; in the experiment with SNB-75 CNS, 82.2 µM; with OVCAR-8 ovarian, 60.2 µM; in the experiment on NCI-H522 lung, 91.1 µM. For the same compound, the TGI in the experiment with T-47D breast is more than 100 µM.

On to `COc1ccc2c(c1)C(=O)CC(C(N)=O)C2` (configuration not stated), for which the TGI with SK-MEL-5 melanoma, in the experiment on CAKI-1 renal, with SNB-75 CNS, in the experiment on OVCAR-8 ovarian, with NCI-H522 lung and in the experiment on OVCAR-4 ovarian was more than 100 µM throughout. This compound returned a TGI in the experiment on T-47D breast of more than 100 µM.

As for `Fc1ccc(Nc2ccnc(N3CCN(c4ccnc5cc(Cl)ccc45)CC3)n2)cc1`, the GI50 in the experiment with SK-MEL-5 melanoma was 1.53 µM; with CAKI-1 renal it was 1.83 µM; in the experiment on SF-539 CNS, 2.95 µM; with SNB-75 CNS it was 2.43 µM; in the experiment with OVCAR-8 ovarian, 2.16 µM; in the experiment with NCI-H522 lung, 2.03 µM. Besides, the GI50 with OVCAR-4 ovarian is 2.36 µM. The TGI in the experiment on SK-MEL-5 melanoma was 2.96 µM; with CAKI-1 renal it was 5.3 µM; in the experiment with SF-539 CNS, 10.3 µM; with SNB-75 CNS, more than 100 µM; in the experiment on OVCAR-8 ovarian it was 6.12 µM; in the experiment on NCI-H522 lung, 5.38 µM. This compound also returned a TGI in the experiment on OVCAR-4 ovarian of more than 100 µM.

Consider `Cc1cc(C2CC(O)C(CO)O2)c(Br)cc1Br` (configuration not stated), for which the GI50 with SK-MEL-5 melanoma, in the experiment on CAKI-1 renal, in the experiment with SF-539 CNS, in the experiment with OVCAR-8 ovarian, in the experiment on NCI-H522 lung and in the experiment with T-47D breast was more than 100 µM in each case. Besides, the TGI in the experiment on SK-MEL-5 melanoma, with CAKI-1 renal, in the experiment with SF-539 CNS, in the experiment on OVCAR-8 ovarian, in the experiment on NCI-H522 lung and with T-47D breast was more than 100 µM each time.
